These results are taken from patent US12370235B2, “Synthetic, non-natural antimicrobial peptides inspired by Staphylococcus auricularis delta toxin” (University of Saskatchewan, priority 2021, dated 2025).

In test [1] the test system is S. aureus / MRSA (ATCC MP-2 panel). It is filed as cell-based, Staphylococcus aureus. Put shortly: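 MIC by broth microdilution in cation-adjusted Mueller Hinton broth: cultures diluted to OD 6×10^−4 and exposed to 2-fold peptide dilution series, standing overnight at 37° C. MIC = lowest peptide concentration with no visible growth. Panel: one methicillin-sensitive S. aureus plus 7 MRSA strains of distinct SCCmec genotypes.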

For test [2], the system named is MRSA ATCC 33592. The experiment in a line: SYTOX Green membrane integrity assay. The format is cell-based, Staphylococcus aureus. To be noted: one fourth to four-fold the MIC. Here is the method:
Membrane disruption and depolarization are commonly reported mechanisms of AMP action. Two indirect assays that rely on fluorescent dyes were employed to assess the interaction of STIP3-29 and D-STIP3-29 with bacterial membranes. First, changes to SYTOX fluorescence was measured when MRSA ATCC 33592 was treated with increasing peptide concentrations ranging from one fourth to four-fold the MIC. […] Next, DiSC3(5), a cationic dye that binds to polarized membranes was used to report on possible depolarization related to AMP treatment. […] Thus, without wishing to be bound by theory, a more conservative explanation of the results is that the cationic peptides increase membrane permeability to SYTOX and that the like-charge of the AMPs to the reporter of polarization may confound the interpretation of the indirect assay. For example, the AMPs may simply displace the self-quenching DiSC3(5) molecules from the membrane surface without causing depolarization.

In test [3] the test system is MRSA ATCC 33592. The experiment in a line: Three-dimensional NHEK skin model of MRSA infection and treatment. It is filed as cell-based, Staphylococcus aureus. Here is the method: To begin to assess the potential utility of STIP3-29 as a topical antimicrobial agent, the ability of the peptide to control MRSA infections of three-dimensional epidermal skin model prepared from normal, human-derived epidermal keratinocytes (NHEK) in vitro was evaluated. The multilayered and highly differentiated tissue was colonized with MRSA 33952 through a 4 h exposure to 5×10^5 CFU before removing non-adherent cells. It was observed that ˜7×10^3 CFU (−1%) of the MRSA cells colonized the tissues, and that the population expanded by 4-log units in a 16 h period (FIG. 6A). […] Amidation of the C-terminus is correlated with an increase in red blood cell lysis, observed by comparing of STIP3-1 to STIP3-28 and STIP3-3 to STIP3-29 whereas the inclusion of D-amino acids reduced the hemolytic activity.
Three-dimensional tissue infection and treatment. 3D EpiDerm skin tissues (MatTek EPI-200-AFAB; antifungal & antibiotic-free; 9 mm) contained within a plastic insert lined with a permeable 0.4 μm membrane were transferred to a 12 well plate containing dye- and antibiotic assay medium (600 μl per well). […] The number of colonies on each plated were counted and an average CFU/mL was determined for treated and untreated samples. […]

For a further test, the system named is HeLa cells. It is filed as cell-based. To be noted: 24 h, alamarBlue. Here is the method: Peptide cytotoxicity. In vitro cytotoxicity was measured using the 3D EpiDerm skin tissues and HeLa Cells using a fluorescent reporter of cell viability, alamarBlue (ThermoFisher Scientific). 3D EpiDerm skin tissues (MatTek EPI-200-AFAB) were transferred to a 12 well plate containing 600 μL of AFAB-assay medium supplemented with 10% v/v alamarBlue. […] HeLa cells were seeded in a 96-well plate (2×10^4 cells/per well) and incubated overnight at 37° C. and 5% CO2 in a humidified incubator to prepare wells at ˜50% confluency of adherent cells. After the incubation, spent DMEM was removed and cells were washed with PBS. alamarBlue-containing medium was prepared by mixing Phenol Red-free DMEM with alamarBlue solution at a 9:1 ratio and a 180 μl volume was added to each well. Cells were treated with peptides varying from 3.25 to 200 μg/mL and then incubated for 24 h. The fluorescence intensities of treated cultures were normalized to values measured for an untreated control group. After the 24 h incubation period, alamarBlue fluorescence was measured at 590 nm upon excitation at 560 nm using Varioskan Lux plate reader (Thermo Scientific) plate reader.
On the technique in general: Alamar Blue is a resazurin reagent that responds to reducing activity.

Like-named read-outs stand apart in the source and are kept apart here. Ends that are not written are not given here.

Turning to “TVGGLVKWILKTVKKFA-NH2 [STIP3-29, TVGGLVKWILKTVKKFA-NH2]”, the “MIC, MRSA” value in test [1] amounted to 6.25 µg/mL; in test [1] (molar) it was 3.3 µM. In test [1] (relative to STIP3-1, S. aureus / MRSA), the “fold improvement of activity (MIC)” value turned out to be 16 fold. Moreover, the SYTOX fluorescence change entry in the test on MRSA ATCC 33592 [2] was “rapid and concentration dependent increase in SYTOX fluorescence”. Moreover, the “control of MRSA population on 3D epidermal tissue” value with MRSA ATCC 33592 [3] (25 μg/ml after colonization, 16 h) was “prevented the expansion of the MRSA population”. The average bacterial density in the test with MRSA ATCC 33592 [3] (tissues treated with 25 μg/mL (n=6), infected at 7×10^3 CFU/mL, untreated 9×10^7 CFU/mL) is given as 6×10^3 CFU/mL. Besides, the “IC50, HeLa cell survival” value in the test on HeLa cells turned out to be 56 ± 1 µg/mL.
